Data from patent US7018813B2 (priority 2000, dated 2006).
Like-named read-outs stand apart in the source and are kept apart here.

Legend:
[1] = at 25° C.; cited from earlier work
[2] = cited from earlier work
[3] = test system: B. pertussis strain ATCC 9797 or CS87; format: cell-based, Bordetella pertussis

## O=S(=O)([O-])[O-].[Pb+2] [PbSO4]
[1]
  Ksp: 1.82 × 10^−8

## O=S(=O)([O-])[O-].[Sr+2] [SrSO4]
[1]
  Ksp: 3.42 × 10^−7

## O=S(=O)([O-])[O-].[Ag+].[Ag+] [AgSO4]
[1]
  Ksp: 1.19 × 10^−5

## BaSO4
[1]
  Ksp: 1.05 × 10^−10
[2]; at 25° C.
  solubility in water: 10.7 µM
[2]; at 100° C.
  solubility in water: 17.7 µM

## Barium chloride [BaCl2]
[3]
  amount of PT: 0.525 μg/mL/OD650
